Experimental data as given in US8148083B2, “Methods of screening for TRPM4 modulators of insulin secretion” (The Queen's Medical Center, priority 2006, dated 2012).
Read-outs that look alike come from different tables or passages of the source. Each block holds one compound with its values, some of them ahead of it.

How the values were obtained:
[1] = molecular target: T1, TRPM4 (Homo sapiens, UniProt Q8TD43); test: Whole-cell patch-clamp of TRPM4 currents in TrexHEK-293 cells overexpressing TRPM4, buffered [Ca2+]i; assay type: cell-based; conditions: flag-TRPM4-TrexHEK293, current at +80 mV
T1 construct: expressed in transfected cells; host or cells: TrexHEK-293 (tetracycline-inducible HEK-293)

[2] = molecular target: T2, TRPM4 (Rattus norvegicus, UniProt Q9ESQ5); test: Whole-cell patch-clamp of TRPM4 currents in INS-1 cells perfused with buffered [Ca2+]i; assay type: cell-based; set-up: The channel was detected in INS-1 and RINm5F cell lines; endogenous in cells; host or cells: INS-1 (rat insulinoma beta-cell line); conditions: current amplitude at +80 mV
[3] = molecular target: T2, TRPM4; test: Glibenclamide on TRPM4 currents in INS-1 cells; conditions: pressure applied
[4] = system: TRPM4; test: Agonist-induced TRPM4 currents in TrexHEK293 cells overexpressing TRPM4 (double carbachol application); assay type: cell-based, human
Description: Patch-clamp experiments were performed in the tight-seal whole-cell configuration at 21-25 ° C. High-resolution current recordings were acquired by a computer-based patch-clamp amplifier system (EPC-9, HEKA, Lambrecht, Germany). Patch pipettes had resistance between 3-6 MΩ after filling with the standard intracellular solution. […] Currents were filtered at 2.9 kHz and digitized at 100 μs intervals. Capacitive currents and series resistance were determined and corrected before each voltage ramp using the automatic capacitance compensation of the EPC-9. The low-resolution temporal development of membrane currents was assessed by extracting the current amplitude at -80 mV or +80 mV from individual ramp current records. Data analysis, statistical analysis and graphical display of patch-clamp experiments were done using the Igor […] software program (Wavemetrics). […] Cells were treated with carbachol twice according to protocol used in the calcium measurement experiments (n=5). First, to induce exocytosis of TRPM4 containing vesicles and second to activate the new pool of TRPM4 present in the plasma membrane. Utilizing Ca^2+ imaging techniques, fura-2-AM loaded cells were stimulated with 1 mM carbachol for 200 s followed by washout and a second stimulation (FIG. 9A). […]

[5] = 600 s, read-out: KD, dose-response fit of TRPM4 activation, secondary phase

T2 sequence (Q9ESQ5 whole entry, the tested form may be a part): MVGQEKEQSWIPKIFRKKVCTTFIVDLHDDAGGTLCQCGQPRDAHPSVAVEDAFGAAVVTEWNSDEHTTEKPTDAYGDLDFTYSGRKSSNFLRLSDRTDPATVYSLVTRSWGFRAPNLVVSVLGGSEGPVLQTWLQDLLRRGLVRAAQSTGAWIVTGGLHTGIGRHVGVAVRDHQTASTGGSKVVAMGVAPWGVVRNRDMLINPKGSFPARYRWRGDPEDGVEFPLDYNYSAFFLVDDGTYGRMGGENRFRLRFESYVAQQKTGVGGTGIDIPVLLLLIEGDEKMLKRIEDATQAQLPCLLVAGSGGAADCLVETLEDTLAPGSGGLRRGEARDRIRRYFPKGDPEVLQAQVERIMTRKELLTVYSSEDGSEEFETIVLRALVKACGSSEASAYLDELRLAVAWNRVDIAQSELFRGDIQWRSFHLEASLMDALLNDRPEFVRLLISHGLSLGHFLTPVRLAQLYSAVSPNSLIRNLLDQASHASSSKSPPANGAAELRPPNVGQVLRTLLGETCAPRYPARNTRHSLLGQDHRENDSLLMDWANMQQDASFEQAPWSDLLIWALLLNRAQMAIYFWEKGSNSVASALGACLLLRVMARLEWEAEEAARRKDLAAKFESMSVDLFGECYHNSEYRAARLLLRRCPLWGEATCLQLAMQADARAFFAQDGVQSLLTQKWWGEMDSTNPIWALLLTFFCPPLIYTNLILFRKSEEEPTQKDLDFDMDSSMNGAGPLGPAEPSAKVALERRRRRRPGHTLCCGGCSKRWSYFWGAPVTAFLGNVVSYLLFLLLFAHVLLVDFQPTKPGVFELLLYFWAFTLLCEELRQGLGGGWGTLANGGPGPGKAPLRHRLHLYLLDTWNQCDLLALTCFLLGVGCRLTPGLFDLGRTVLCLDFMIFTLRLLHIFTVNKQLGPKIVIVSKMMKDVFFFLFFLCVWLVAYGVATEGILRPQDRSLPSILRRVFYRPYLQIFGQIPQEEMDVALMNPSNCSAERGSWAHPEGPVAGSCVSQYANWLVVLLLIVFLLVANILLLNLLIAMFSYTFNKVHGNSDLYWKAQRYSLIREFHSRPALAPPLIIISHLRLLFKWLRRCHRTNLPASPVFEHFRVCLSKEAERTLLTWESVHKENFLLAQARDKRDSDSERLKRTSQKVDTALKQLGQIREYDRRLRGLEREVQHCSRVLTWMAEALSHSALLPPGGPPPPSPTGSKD
T1 sequence (Q8TD43 whole entry): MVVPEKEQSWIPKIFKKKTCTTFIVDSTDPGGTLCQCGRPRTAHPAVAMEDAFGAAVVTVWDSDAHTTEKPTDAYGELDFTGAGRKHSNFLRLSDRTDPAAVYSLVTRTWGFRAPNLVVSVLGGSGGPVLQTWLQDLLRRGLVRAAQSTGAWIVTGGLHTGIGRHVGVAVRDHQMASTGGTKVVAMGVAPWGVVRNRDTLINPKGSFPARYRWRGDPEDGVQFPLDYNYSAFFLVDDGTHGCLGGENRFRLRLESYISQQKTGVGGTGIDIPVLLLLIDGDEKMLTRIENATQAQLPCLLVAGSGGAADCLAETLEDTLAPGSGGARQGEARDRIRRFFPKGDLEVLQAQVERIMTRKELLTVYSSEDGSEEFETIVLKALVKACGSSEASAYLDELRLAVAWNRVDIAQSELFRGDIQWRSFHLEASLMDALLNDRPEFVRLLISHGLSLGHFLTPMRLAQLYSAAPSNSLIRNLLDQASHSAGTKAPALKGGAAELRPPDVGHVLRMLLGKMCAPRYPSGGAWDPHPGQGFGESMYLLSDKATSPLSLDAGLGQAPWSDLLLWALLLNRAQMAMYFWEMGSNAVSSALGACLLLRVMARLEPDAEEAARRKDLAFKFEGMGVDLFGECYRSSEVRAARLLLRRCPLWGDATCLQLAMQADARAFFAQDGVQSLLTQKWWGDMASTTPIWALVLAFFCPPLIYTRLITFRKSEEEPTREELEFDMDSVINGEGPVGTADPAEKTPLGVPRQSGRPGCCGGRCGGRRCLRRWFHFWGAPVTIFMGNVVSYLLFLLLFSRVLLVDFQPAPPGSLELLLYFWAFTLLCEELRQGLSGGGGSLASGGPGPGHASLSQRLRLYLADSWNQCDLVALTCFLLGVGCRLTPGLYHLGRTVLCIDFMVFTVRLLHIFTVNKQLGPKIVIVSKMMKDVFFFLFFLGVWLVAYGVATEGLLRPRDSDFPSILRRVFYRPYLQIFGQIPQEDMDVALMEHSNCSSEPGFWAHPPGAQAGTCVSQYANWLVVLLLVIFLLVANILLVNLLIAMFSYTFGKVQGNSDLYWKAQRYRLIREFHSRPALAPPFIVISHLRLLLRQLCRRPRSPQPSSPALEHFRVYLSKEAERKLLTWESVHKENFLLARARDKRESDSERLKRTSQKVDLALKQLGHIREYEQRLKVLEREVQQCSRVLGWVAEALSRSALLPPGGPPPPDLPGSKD

Kd ([2]; 80 s, read-out: KD, dose-response fit of TRPM4 activation, first phase): 1700 nM
Kd [2, 5]: 1200 nM
Compound: [Ca+2] [Ca^2+]
Kd [1, 5]: 1300 nM
Kd ([1]; peak of first phase, read-out: KD, dose-response fit of TRPM4 activation, first phase): 1200 nM

Compound: COc1ccc(Cl)cc1C(=O)NCCc1ccc(S(=O)(=O)NC(=O)NC2CCCCC2)cc1 [Glibenclamide, glibenclamide]
effect on TRPM4 channels [3]: activates TRPM4 channels

Compound: C[N+](C)(C)CCOC(N)=O [carbachol]
TRPM4 current amplitude ([4]; first application of 1 mM carbachol): less than 1 nA
TRPM4 current amplitude ([4]; second carbachol application after washout): around 10 nA
